From patent publication US6383528B1 (Yuyu International Co., Ltd., priority 1997, dated 2002)

Key:
[1] = tested on: femur marrow cells; assay: Number of bone marrow cells after 16 weeks of administration; assay type: in vivo; details: rats, ticlopidine vs control, combinations vs ticlopidine alone
Procedure: A Change in the Number of Bone Marrow Cells after the Administration of the Pharmaceutical Composition for the Duration of 16 Weeks. […] Thereafter, the number of bone marrow cells was measured. In detail, for the purposes of measuring the numbers of the precursor cells of leukocytes, the femur part was incised with the elimination of the surrounding muscle tissues. Then, both sides of epiphysis were incised, from which approximately 2 cm of femur was obtained. […] After removing the supernatant, 1 ml of saline solution was added to the precipitated cell layer. […] Then, removing the supernatant once again, 0.5 ml of saline solution was added to the precipitated cell layer and mixed. The drop therefrom was added to the Cytometer, and the number of cells in the RRRRR 5 part (4 corners and the center) was counted. Using the following formula, the number of marrow cells were calculated: Counted Number×50×10×10^3=Number of white blood cell precursor/femur.

[2] = tested on: femur marrow cells; assay: Histological examination of the marrow cells after 16 weeks and 2 weeks of withdrawal; assay type: in vivo; details: rats, 16 weeks then 2 weeks of withdrawal, femur marrow histology
Description: Histological Examination of the Marrow Cells after the Administration of the Pharmaceutical Composition for 16 Weeks, Followed by 2 Weeks of Withdrawal
Thereafter, the marrow cells were histolosically examined.

[3] = tested on: femur marrow cells; assay: Number of bone marrow cells after 16 weeks of administration and 2 weeks of withdrawal; assay type: in vivo; details: rats, 16 weeks then 2 weeks of withdrawal; combination 5:2
Procedure: The Changes in the Number of the Bone Marrow Cells after 16 Weeks of the Administration of the Pharmaceutical Composition, Followed by 2 Weeks of Withdrawal
Thereafter, the number of bone marrow cells at femur was measured.

[4] = tested on: femur marrow cells; assay: Histological examination of the marrow cells after 16 weeks; assay type: in vivo; details: rats, femur marrow histology ×400
Description: Histological Examination of the Marrow Cells after the Administration of the Pharmaceutical Composition for 16 Weeks […] Thereafter, the marrow cells was histologically examined. […] The femur so extracted was decalcified with the decalcification solution and embedded with paraffin after the ordinary course of the histological process. The femur tissue so embedded with paraffin was sliced at a thickness of 4 μm, followed by hematoxylin and eosins. Thereafter, the slide was examined with the light microscope at 400×.

[5] = tested on: mouse acute thrombus model; assay: Recovery rate in the mouse acute thrombus model (collagen + epinephrine); assay type: in vivo; details: for Recovered Mouse, Number of Mouse: recovery within 15 minutes
Procedure: An Increase in Recovery Rate in the Mouse Acute Thrombus Model
One hour after the final administration of the regimen, the mixed solution containing collagen and epinephrine (collagen 1100 μg+epinephrine 110 μg/10 ml of saline solution/kg) was injected into the vein in the tail. The status of paralysis or death from pulmonary infarction, and the recovery therefrom were duly recorded.
As in the experiment above if the mixed solution comprising collagen and epinephrine was infected into the vein a large of amount of thrombus was generated shortly thereafter with the result of an occlusion in the pulmonary artery. Within one minute after the injection, almost every part of the body was in paralysis with the enlargement of a pupil. Dyspnea occurred followed by a seizure. Within 5 minutes, approximately 70˜80% of the mouse were deceased. As to the remainder, almost every mouse were dead within 15 minutes or in a continued paralysis.

[6] = tested on: thrombus formation at the cotton thread in the A-V Shunt; assay: Thrombus formation by arterio-venous shunt (A-V Shunt); assay type: in vivo; details: female rats; for Thrombus Dry Condition Suppression Rate (%) / Thrombus Wet Condition Suppression Rate (%): vs control rats
Procedure: Thrombus Formation by Arterio-Venous Shunt (A-V Shunt hereinafter) and the Effects on the Platelet Aggregation […] Thereafter, Table 7 was tabulated with the measured weights of the thrombus formation at the cotton thread in the A-V Shunt. At this point, the weights of thrombus were measured in terms of the wet weight immediately after the experiment, and dry weight after complete drying.

[7] = tested on: leukocytes in rat; assay: Leukocyte number and differential ratios after 16 weeks of administration; assay type: in vivo; details: rats
Procedure: Bellefonte, Pa.). […] The changes due to the dosage amount and blending ratio were set as follows. […] On the other hand, one tablet of the Ginkgo biloba extract is 40 mg, 80 mg, 120 mg with a daily dosage of 120 mg to 240 mg. […] [table] […] After anesthesia, blood was collected through the abdominal aorta, and the number of white blood cells were counted using the Coulter Counter. Using the cytochemical dyeing method, the ratios of neutrophil, eosinophil, basophil, macrophage and lymphocytes were measured.

[8] = tested on: female rats; assay: Prolongation of the bleeding time (tail incision); assay type: in vivo; details: for Bleeding Time: female rats
Procedure: Prolongation of the Bleeding Time
One hour after the final administration of the regimen, 250 mg/kg of ketamine was injected into muscle tissue for anesthesia. 2 mm from the tail end was incised with the razor blade, after which the blood therefrom was blotted with the filter paper at the interval of 5 second to the point of the hemorrhage stoppage.

[9] = patients, first 3 months of treatment; cited from earlier work
[10] = tested on: platelet aggregation induced by 1×10^−5 M ADP; assay: Ex vivo platelet aggregation suppression effect; details: female rats, ADP 1×10^−5 M
Description: Ex Vivo Platelet Aggregation Suppression Effect
One hour after the final administration on the specimen, the rats were anesthetized. For preventing blood coagulation, the blood sample was collected using a syringe with the anti-coagulant, 3.8% Sodium Citrate solution. Thereafter, the effects oil the platelet aggregation induced by 1×10^−5 M ADP were studied.

[11] = tested on: platelet aggregation induced by ADP 3×10^−5M in PRP; assay: Ex vivo platelet aggregation in rats with A-V Shunt; details: for Aggregation Rate (%) 2 Minutes / Aggregation Rate (%) 3 Minutes / Aggregation Rate (%) Maximum: control maximum set at 100
Procedure: The Effect on Platelet Aggregation in the A-V Shunt of Rats
After the administration of the same regimens used in Experiment 3 for the duration of 9 days, the weights of thrombus formations at the A-V Shunt were measured as the sample of the blood therefrom was collected for the purposes of studying the effect on the ex vivo platelet aggregation after the AV-Shunt. In particular, to the PRP (supernatant after the centrifuge of the blood sample for 10 minutes at 200×g) prepared from the respective blood sample, ADP 3×10^−5M, which is the platelets aggregation inducer, were added for the purposes of inducing aggregation.
In order to study the ex vivo platelet aggregation effect of the rats' blood without A-V Shunt, the concentration of ADP lower than 1×10^−5M was used. With the maximum platelet aggregation rate of rats in the control group with A-V Shunt set at 100, various aggregation rates were compared.

[12] = tested on: leukocytes in rat; assay: Leukocyte number and differential ratios after 16 weeks of administration and 2 weeks of withdrawal; assay type: in vivo; details: rats
Procedure: Rats were administered with the same regimens as in Experiment 6 for the duration of 16 weeks, and those with two weeks of withdrawal were separately maintained.

[13] = 50 mg/kg/day for 9 days, 50 mg/kg/day
[14] = 50 mg/kg/day for 9 days, listed as Ticlopidine (T), 50 mg/kg/day
[15] = 100 mg/kg/day for 9 days, 100 mg/kg/day
[16] = 100 mg/kg/day for 9 days, listed as Ticlopidine (T), 100 mg/kg/day
[17] = 16 weeks P.O., ticlopidine 300 mg/kg/day alone or + Ginkgo extract 60/120/240 mg/kg/day, mean ± S.E.
[18] = 50 mg/kg/day for 9 days, listed as Ticlopidine (T)
[19] = 100 mg/kg/day for 9 days, listed as Ticlopidine (T)
[20] = 16 weeks P.O. then 2 weeks of withdrawal, 300 or 300 + 120 mg/kg/day, mean ± S.E.

## Clc1ccccc1CN1CCc2sccc2C1 [Ticlopidine, 5-[(2-chlorophenyl)methyl]-4,5,6,7-tetrahydrothieno[3,2-C]pyridine]
[1]
  number of white blood cell precursor at marrow (femur marrow cells, FIG. 1), words: significant reduction
[2]
  Megakaryocyte: increased almost to the point of the control group
[3]
  number of marrow cells at femur (FIG. 2), words: recovered to the normal level
[4]
  Band-granulocyte: no change
  Cellularity (density of the marrow cells): malignant vacuolation
  Megakaryocyte: decreased
  Myelocyte: significantly decreased
[5]; 50 mg/kg/day for 3 days
  Recovered Mouse, %: 38%
  Recovered Mouse, Number of Mouse: 6
[5]; 100 mg/kg/day for 3 days
  Recovered Mouse, %: 47%
  Recovered Mouse, Number of Mouse: 7
[6]; 50 mg/kg/day for 9 days
  Thrombus Dry Condition Weight: 9.53 mg
  Thrombus Wet Condition Weight: 35.03 mg
[6]; [13]
  Thrombus Dry Condition Suppression Rate (%): 25%
  Thrombus Wet Condition Suppression Rate (%): 26%
[6]; [14]
  Thrombus Dry Condition Suppression Rate (%): 25 ± 21%
  Thrombus Wet Condition Suppression Rate (%): 26 ± 19%
[6]; 100 mg/kg/day for 9 days
  Thrombus Dry Condition Weight: 8.78 mg
  Thrombus Wet Condition Weight: 30.45 mg
[6]; [15]
  Thrombus Dry Condition Suppression Rate (%): 31%
  Thrombus Wet Condition Suppression Rate (%): 36%
[6]; [16]
  Thrombus Dry Condition Suppression Rate (%): 31 ± 12%
  Thrombus Wet Condition Suppression Rate (%): 36 ±10%
[7]; 16 weeks
  eosinophil, basophil, macrophage or lymphocyte compared with the control group: not significant differences
  white blood cells in the blood compared with the control group: slight tendency of a decrease
[7]; 16 weeks P.O. in drinking water, ticlopidine 300 mg/kg/day alone or + Ginkgo extract 60 (5:1), 120 (5:2), 240 (5:4) mg/kg/day, mean ± S.E.
  Total Leukocyte (×10^3/μl): 9.3 ± 1.3 ×10^3/μl
[7]; [17]
  Basophil (%): 1.7 ± 0.2%
  Eosinophil (%): 2.0 ± 0.4%
  Lymphocyte (%): 80.4 ± 1.6%
  Macrophage (%): 5.5 ± 0.8%
  Neutrophil (%): 10.5 ± 1.1 %
[7]; 16 weeks P.O., ticlopidine 300 mg/kg/day alone or + Ginkgo extract 60/120/240 mg/kg/day, mean ± S.E., listed as ticlopidine
  Neutrophil (%): 10.5±1.1%
[8]; 50 mg/kg
  bleeding time increase from that in the control group: 1.5 times
[8]; 100 mg/kg
  bleeding time increase from that in the control group: 2 times
[8]; 50 mg/kg/day for 5 days
  Bleeding Time: 1546 ± 332 s
[8]; 100 mg/kg/day for 5 days
  Bleeding Time: 2023 ± 872 s
[9]
  incidence rate of toxicity (neutropenia, agranulocytosis): 0.8%
[10]; 100 mg/kg/day for 3 days, 100 mg/kg/day
  Suppression Rate (%) (Avg + SD): 67%
[10]; 100 mg/kg/day for 3 days, listed as Ticlopidine (T), 100 mg/kg/day
  Suppression Rate (%) (Avg + SD): 67.06 ± 16.25 %
[10]; 200 mg/kg/day for 3 days, 200 mg/kg/day
  Suppression Rate (%) (Avg + SD): 98%
[10]; 200 mg/kg/day for 3 days, listed as Ticlopidine (T), 200 mg/kg/day
  Suppression Rate (%) (Avg + SD): 97.97 ± 4.53 %
[11]; 50 mg/kg/day for 9 days
  Time (Minute) Maximum (time to maximum aggregation): 1.8 min
  Time (Minute) Total (complete de-aggregation): 4.33 min
  Aggregation Rate (%) 2 Minutes: 74%
  Aggregation Rate (%) 3 Minutes: 45%
  Aggregation Rate (%) Maximum: 78%
[11]; [18]
  Aggregation Rate (%) 2 Minutes: 74.4%
  Aggregation Rate (%) 3 Minutes: 45.8%
  Aggregation Rate (%) Maximum: 78.2%
[11]; 100 mg/kg/day for 9 days
  Time (Minute) Maximum (time to maximum aggregation): 1.5 min
  Time (Minute) Total (complete de-aggregation): 3.4 min
  Aggregation Rate (%) 2 Minutes: 62%
  Aggregation Rate (%) 3 Minutes: 21%
  Aggregation Rate (%) Maximum: 72%
[11]; [19]
  Aggregation Rate (%) 2 Minutes: 62.9%
  Aggregation Rate (%) 3 Minutes: 21.4%
  Aggregation Rate (%) Maximum: 72.6%
[12]; [20]
  Basophil (%): 0.3 ± 0.1%
  Eosinophil (%): 2.7 ± 0.2%
  Lymphocyt (%): 77.8 ± 0.5%
  Macrophage (%): 3.5 ± 1.0%
  Neutrophil (%): 15.9 ± 1.7 %
[12]; 16 weeks P.O. then 2 weeks of withdrawal, ticlopidine 300 mg/kg/day alone or + Ginkgo extract 120 mg/kg/day (5:2), mean ± S.E.
  Total Leukocyte (×10^3/μl): 10.3 ± 1.2 ×10^3/μl
[12]; 16 weeks then 2 weeks of withdrawal
  number of neutrophil / leukocytes after withdrawal compared with the control group: normal recovery
